Assay results reported in patent US6296873A, “Zero-order sustained release delivery system for carbamazephine derivatives” (Yissum Research Development Company of the Hebrew …, priority 2000, dated 2001).
≈ marks a conversion by molar mass, not a printed value. Like-named read-outs stand apart in the source and are kept apart here.

Key:
[1] = Degree of conversion of anhydrous carbamazepine to carbamazepine dihydrate in suspension (DSC); type: physicochemical
Description: Suspensions of carbamazepine (5% w/v) containing water or 1% SDS aqueous solution were shaken at 37° C. with stirring (50 rpm). Samples from the sediment were taken after 1 day, dried at room temperature for 2 days, and analyzed by differential scanning calorimetry, X-ray powder diffraction and scanning electron microscopy (SEM). Carbamazepine anhydrous powder was analyzed using the same methods.
(§1) Analysis of carbamazepine in HPMC solutions and in dry mixtures of HPMC was performed. Suspension of carbamazepine (5% w/v) containing 1% SDS aqueous solution with Methocel K4M at different concentrations, namely 0.5, 1, 2, 5 and 10 mg,/ml were shaken for 1-7 days at 37° C. with stirring (50 rpm). Samples from the sediment were taken, at various time intervals, dried at room temperature for 2 days and analyzed by DSC, X-ray powder diffraction and SEM.
The degree of conversion of anhydrous carbamazepine to the dihydrate form, measured by DSC, was calculated according to the ratio obtained from the dehydration enthalpies of carbamazepine suspended in 1% SDS aqueous Methocel solution and 1% SDS aqueous solution without Methocel. Dry mixtures containing different ratios of HPMC (Methocel K4M) and carbamazepine were also analyzed by DSC in order to investigate the influence of HPMC on the polymorphic transformation of carbamazepine.
(§2) The thermal analysis of the samples was performed using a Differential Scanning Calorimeter (DSC, Mettler TA4000 with measuring cell DSC 30E, Switzerland). Samples were measured into aluminum pans. Lids were crimped and holes were made in lids in order to allow dehydration of samples. The thermal behavior of the samples was studied under nitrogen purge at heating rates of 10° C. min^-1 over a temperature range of 0° C. to 250° C. When the glass transition temperature of HPMC was examined the heating rate was 0.5° C. min^-1.

[2] = Solubility of carbamazepine in medium; type: physicochemical; settings: read-out: Drug solubility
Text: Results are seen in FIG. 12.

[3] = Crystal morphology and structure of carbamazepine from HPMC solutions (SEM, X-ray diffraction); type: physicochemical; settings: for X-ray diffraction: crystal form of carbamazepine: 1 day
Description: as §1
(§3) X-ray powder diffraction of the samples was recorded by Philips automated diffractometer using Cu-K α radiation (40 kV, 35 mA) at a scanning rate of 0.5° per 20 min^-1.
Samples of hydrated tablets were sliced across the gel layer. The samples were washed and then treated with increasing concentration of ethanol, 5 minutes at each concentration, for dehydration. In order to complete the dehydration the samples were transferred in solution of freon 113:ethanol with increasing concentrations of freon (25, 50, 75, 100%). The samples with 100% freon were incubated in the hood for 0.5 hour. The cross-sectioned tablets were mounted on stubs and coated with a polaron sputter coater, Model E5100. The film thickness obtained was approximately 75 Å. Scanning electron photomicrographs were recorded using a Philips 505 SEM, applying voltage of […]. Samples of powders were coated and analyzed under the same conditions described for the hydrated tablets.

[4] = Crystal morphology and structure of carbamazepine in the gel layer of hydrated tablets (DSC, X-ray, SEM); type: physicochemical; settings: for SEM: form of carbamazepine in the gel layer: 50% Methocel K4M
Description: Gel layers of the tablets were analyzed. Tablets were hydrated using the USP Basket Method I under the same conditions described in the dissolution studies. At various time intervals the tablets were removed from the baskets, the gel layer was scratched and dried at room temperature for at least 24 hours. The gel layer was analyzed by DSC, X-ray powder diffraction and scanning electron microscopy (SEM). Used analytical methods are described in Example 4.
Tablets containing 50% carbamazepine and 50% Methocel K4M were prepared and hydrated in medium containing 1% SDS in water, using tablet dissolution tester at the same conditions used for measurements of the release rate of the drug.
At various time intervals the tablets were removed and the gel layer was peeled, dried at room temperature and analyzed by DSC, X-ray and SEM. For comparison, a suspension containing carbamazepine in 1% SDS water solution was prepared and the crystals obtained were analyzed by DSC, X-ray and SEM.
as §2, §3
Samples of hydrated tablets were sliced across the gel layer. The samples were washed and then treated with increasing concentration of ethanol, 5 minutes at each concentration, for dehydration. […] Scanning electron photomicrographs were recorded using a Philips 505 SEM, applying voltage of […]. Samples of powders were coated and analyzed under the same conditions described for the hydrated tablets.

[5] = after 1 hour, in the presence of water; cited from earlier work
[6] = anhydrous carbamazepine; cited from earlier work

Degree of conversion of carbamazepine to carbamazepine dihydrate ([1]; 5 mg/ml Methocel K4M, time 1 day): 0%
Degree of conversion of carbamazepine to carbamazepine dihydrate ([1]; 5 mg/ml Methocel K4M, time 2 days): 0.97%
Degree of conversion of carbamazepine to carbamazepine dihydrate ([1]; 5 mg/ml Methocel K4M, time 3 days): 8.8%
Degree of conversion of carbamazepine to carbamazepine dihydrate ([1]; 5 mg/ml Methocel K4M, time 4 days): 21.5%
Degree of conversion of carbamazepine to carbamazepine dihydrate ([1]; 5 mg/ml Methocel K4M, time 7 days): 100%
Degree of conversion of carbamazepine to carbamazepine dihydrate ([1]; Methocel K4M 0 mg/ml, 24 hours, 1% SDS, 37° C.): 100%
Degree of conversion of carbamazepine to carbamazepine dihydrate ([1]; Methocel K4M 0.5 mg/ml, 24 hours, 1% SDS, 37° C.): 77.0%
Degree of conversion of carbamazepine to carbamazepine dihydrate ([1]; Methocel K4M 1 mg/ml, 24 hours, 1% SDS, 37° C.): 23.1%
Degree of conversion of carbamazepine to carbamazepine dihydrate ([1]; Methocel K4M 2 mg/ml, 24 hours, 1% SDS, 37° C.): 0%
Degree of conversion of carbamazepine to carbamazepine dihydrate ([1]; Methocel K4M 5 mg/ml, 24 hours, 1% SDS, 37° C.): 0%
Degree of conversion of carbamazepine to carbamazepine dihydrate ([1]; Methocel K4M 10 mg/ml, 24 hours, 1% SDS, 37° C.): 0%
Transformation of carbamazepine to dihydrate ([1]; after 7 days, all examined Methocel K4M concentrations): transformed completely to dihydrate
Conversion of anhydrous carbamazepine to dihydrate (DSC thermograms) ([1]; suspended in water, without HPMC): completely converted to dihydrate
solubility ([2]; 0.5% sds in water): 1470 µg/mL (≈ 6.21 mM)
solubility ([2]; 1% sds in water): 3300 µg/mL (≈ 14 mM)
X-ray diffraction: crystal form of carbamazepine ([3]; 10 mg/ml Methocel K4M solution): solely the anhydrous form
SEM: appearance of carbamazepine crystals from HPMC solutions ([3]; 1, 5 or 10 mg/ml HPMC, 1 and 7 days): appear to be amorphous
SEM: form of carbamazepine in the gel layer ([4]; 6 hours of hydration): transformed to an amorphous form
SEM: form of carbamazepine in the gel layer ([4]; 20 hours hydration): showed the same behavior
Transformation of carbamazepine to the dihydrate form in the gel layer ([4]; hydrated tablets containing 50% polymer, 6 and 20 hours): inhibited
Compound: NC(=O)N1c2ccccc2C=Cc2ccccc21 [carbamazepine]
X-ray diffraction: crystal form of carbamazepine ([3]; 1 mg/ml Methocel K4M solution): mixture of carbamazepine and carbamazepine dihydrate crystals
Conversion to carbamazepine dihydrate complete [5]: 95%
Solubility in water [6]: practically insoluble in water
